Source: US7309718B2, “Dibenzocycloheptene compound” (UBE Industries, Ltd., priority 2001, dated 2007)
Where two headings read alike, the source gives them in different places.

How the values were obtained:
[1] = tested on: Leukotriene D4 (LTD4) induced respiratory constriction; experiment: Leukotriene D4 induced respiratory constriction test; format: in vivo, guinea pig; settings: Cavia porcellus, po, read-out: LTD4 inhibitory activity
Method: Leukotriene D4 Induced Respiratory Constriction Test
Respiratory constriction was measured by modifying the method of Konzett and Rossler (Arch. Exp. Pathol. Pharmakol., 195, pp. 71-74 (1940)). Hartley male guinea pigs (400 to 500 g body weight, Japan SLC Inc.) were anesthetized with pentobarbital (50 mg/kg, s.c.), and a cannula was inserted into the trachea to carry out artificial ventilation with an artificial ventilator (manufactured by Harvard Apparatus, Model 683). An inner pressure of the respiratory tract was measured by a differential pressure transducer (Nihon Kohden, TP-603T) connected to the respiratory cannula and it is used as an index of respiratory constriction.
LTD4 (0.03, 0.06, 0.13, 0.25, 0.5, 1 and 2 μg/kg, Simga-Aldrich) was intravenously administered from a cannula inserted into the right jugular vein from a low dose with an interval of 5 minutes to cause a respiratory constricttion reaction and an increased amount of a respiratory inner pressure was measured. Test compound was suspended in 0.5% sodium carboxymethyl cellulose aqueous solution or dissolved in 30% propylene glycol aqueous solution, and orally administered 24 hours before administration of LTD4. Animals were fasted for 24 hours before administration of the Test compound. […] LTD4 inhibitory activity=(Dose of Compound administered)/{(ED50 of group to which Compound was added)/(ED50 of control group)-1}

[2] = target: T1, Leukotriene D4 (LTD4) receptor (Cavia porcellus, UniProt Q2NNR5); experiment: Leukotriene D4 receptor binding test ([3H]LTD4, lung cell membrane fraction); settings: binding inhibition constant vs 0.2 nM [3H]LTD4, guinea pig lung cell membrane fraction, 25° C. 30 minutes
T1 sequence (Q2NNR5 1-340): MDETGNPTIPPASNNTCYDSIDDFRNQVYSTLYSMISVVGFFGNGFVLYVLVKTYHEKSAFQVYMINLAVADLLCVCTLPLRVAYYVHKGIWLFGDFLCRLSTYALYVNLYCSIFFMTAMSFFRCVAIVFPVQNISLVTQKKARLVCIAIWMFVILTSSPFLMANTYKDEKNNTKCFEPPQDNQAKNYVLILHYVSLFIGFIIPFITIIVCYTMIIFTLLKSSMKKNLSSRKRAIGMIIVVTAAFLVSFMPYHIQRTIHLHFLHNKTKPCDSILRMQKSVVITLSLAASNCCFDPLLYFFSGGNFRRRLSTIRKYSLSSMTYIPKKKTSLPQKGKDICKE
Method: Leukotriene D4 Receptor Binding Test
<Preparation of Receptor Sample>
As a receptor sample, a lung cell membrane fraction from guinea pigs was used. […] Lungs of Hartley male guinea pigs (400 to 500 g body weight, Japan SLC Inc.) were isolated, and perfused with a physiological saline, and then, adding 10 mM of PIPES, 10 mM of MgCl2 and 10 mM of CaCl2 buffer (pH 7.5) to the lung tissue and the mixture was homogenized. This homogenate was centrifuged at 70,000×g for 10 minutes to obtain a membrane fraction.
<Leukotriene D4 Receptor Binding Test>
To 0.42 mg of the receptor sample were added 10 mM of PIPES, 10 mM of MgCl2 and 10 mM of CaCl2 buffer (pH 7.5) to make the total amount of 480 μl, and 10 μl of [^3H] LTD4 (NEN Life Science Products Inc.) and 10 μl of a test compound in dimethylsulfoxide were added to the mixture, and the resulting mixture was incubated at 25° C. for 30 minutes. The mixtures thus incubated were filtered through a glass fiber filter (Whatman International Ltd., GF/C) using cell harvester (Biomedical Research & Development Laboratories, Inc., M-30R). The filter paper was washed with 10 mM of Tris and 100 mM of NaCl buffer (pH 7.5), and 5 ml of a liquid scintillator (nacalai tesque inc., clearsol I) was added thereto, and radioactivity was measured by a liquid scintillation analyzer (Packard Instrument Co., 2000CA). When a dissociation constant (Kd) of LTD4 was to be obtained, [^3H] LTD4 with 0.03 to 0.5 nM was used, and 1 μM of non-radioactive LTD4 was added. When a binding inhibition constant (Ki) of the Test compound is to be measured, [^3H] LTD4 with 0.2 nM was used.

[3] = p.o. 24 h before LTD4 i.v., dose of compound shifting the control LTD4 dose-reaction curve two-times to higher dose, anesthetized guinea pigs

Row | Compound | Ki [2] [nM] | ED (2-fold shift of LTD4 dose-response) ([1]; 24 h) [µg/kg] | also measured
1 | C[C@H](CSC1c2ccccc2C=Cc2ccc(/C=C/c3ccc4cc(F)c(F)cc4n3)cc21)C(=O)[O-].[Na+] (stereo partly shown) | – | – | melting point: 240 to 249 °C
2 | O=C(O)CCSC1c2ccccc2COc2ccc(OCc3ccc4cc(F)c(Cl)cc4n3)cc21 (stereo not shown) [Compound A, 3-[2-(7-chloro-6-fluoroquinolin-2-yl)methoxy-6,11-dihydrobenz[b,e]oxepin-11-yl]thiopropionic acid, reference compound] | – | – | ED (2-fold shift of LTD4 dose-response) [1, 3]: 25.5 µg/kg
3 | O=C([O-])COC1c2ccccc2C=Cc2ccc(/C=C/c3ccc4cc(F)c(F)cc4n3)cc21.[Na+] (stereo not shown) [Example Compound 3, Sodium [3-[(E)-2-(6,7-difluoroquinolin-2-yl)ethenyl]-5H-dibenzo[a,d]cyclohepten-5-yl]oxyacetate] | 0.1 | – | ED (2-fold shift of LTD4 dose-response) [1, 3]: 4.71 µg/kg; melting point: 213 to 227 °C
4 | O=C([O-])CCSC1c2ccccc2C=Cc2ccc(/C=C/c3ccc4cc(F)c(F)cc4n3)cc21.[Na+] (stereo not shown) [Example Compound 4, Sodium 3-{[3-[(E)-2-(6,7-difluoroquinolin-2-yl)ethenyl]-5H-dibenzo[a,d]cyclohepten-5-yl]thio}propionate] | 0.2 | 1.91 | melting point: 213 to 216 °C
5 | O=C([O-])CCSC1c2ccccc2C=Cc2ccc(/C=C/c3ccc4cc(F)c(Cl)cc4n3)cc21.[Na+] (stereo not shown) [Example Compound 7, Sodium 3-{[3-[(E)-2-(7-chloro-6-fluoroquinolin-2-yl)ethenyl]-5H-dibenzo[a,d]cyclohepten-5-yl]thio}propionate] | 0.2 | 0.85 | melting point: 228 to 238 °C
6 | O=C([O-])CCSC1c2ccccc2C=Cc2ccc(/C=C/c3ccc4ccc(Cl)cc4n3)cc21.[Na+] (stereo not shown) [Example Compound 8, Sodium 3-{[3-[(E)-2-(7-chloroquinolin-2-yl)ethenyl]-5H-dibenzo[a,d]cyclohepten-5-yl]thio}propionate] | – | 5.3 | melting point: 193 to 203 °C
7 | O=C(O)CCSC1c2ccccc2C=Cc2ccc(/C=C/c3ccc4c(n3)CCCC4)cc21 (stereo not shown) [Example Compound 9, Sodium 3-{[3-[(E)-2-(5,6,7,8-tetrahydroquinolin-2-yl)ethenyl]-5H-dibenzo[a,d]cyclohepten-5-yl]thio}propionate] | 0.158 | – | –
8 | C[C@H](COC1c2ccccc2C=Cc2ccc(/C=C/c3ccc4cc(F)c(F)cc4n3)cc21)C(=O)[O-].[Na+] (stereo partly drawn) [Example Compound 10, Sodium 3-{[3-[(E)-2-(6,7-difluoroquinolin-2-yl)ethenyl]-5H-dibenzo[a,d]cyclohepten-5-yl]oxy}-2-(R)-methyl-propionate] | 0.1 | – | ED (2-fold shift of LTD4 dose-response) [1, 3]: 9.93 µg/kg
9 | O=C(O)COC1c2ccccc2C=Cc2ccc(/C=C/c3ccc4cc(F)c(Cl)cc4n3)cc21 (stereo not shown) [Example Compound 11, Sodium [3-[(E)-2-(7-chloro-6-fluoroquinolin-2-yl)ethenyl]-5H-dibenzo[a,d]cyclohepten-5-yl]oxyacetate] | 0.126 | – | –
10 | O=C(O)CCOC1c2ccccc2C=Cc2ccc(/C=C/c3ccc4cc(F)c(Cl)cc4n3)cc21 (stereo not shown) [Example Compound 12, Sodium 3-{[3-[(E)-2-(7-chloro-6-fluoroquinolin-2-yl)ethenyl]-5H-dibenzo[a,d]cyclohepten-5-yl]oxy}propionate] | 0.2 | – | –
11 | C[C@H](COC1c2ccccc2C=Cc2ccc(/C=C/c3ccc4cc(F)c(Cl)cc4n3)cc21)C(=O)O (stereo partly drawn) [Example Compound 13, Sodium 3-{[3-[(E)-2-(7-chloro-6-fluoroquinolin-2-yl)ethenyl]-5H-dibenzo[a,d]cyclohepten-5-yl]oxy}-2-(R)-methylpropionate] | 0.126 | – | –
12 | O=C([O-])CC1CC1CSC1c2ccccc2C=Cc2ccc(/C=C/c3ccc4cc(F)c(Cl)cc4n3)cc21.[Na+] (stereo not shown) [Example Compound 16, Sodium 3-{[3-[(E)-2-(7-chloro-6-fluoroquinolin-2-yl)ethenyl]-5H-dibenzo[a,d]cyclohepten-5-yl]thiomethyl}-cyclopropaneacetate] | – | 0.79 | –
13 | O=C(O)COC1c2cc(/C=C/c3ccc4cc(F)c(Cl)cc4n3)ccc2C=Cc2c(F)cccc21 (stereo not shown) [Example Compound 17, Sodium [3-[(E)-2-(7-chloro-6-fluoroquinolin-2-yl)ethenyl]-9-fluoro-5H-dibenzo[a,d]cyclohepten-5-yl]oxy-acetate] | 0.158 | – | –
14 | O=C([O-])CCSC1c2cc(/C=C/c3ccc4cc(F)c(Cl)cc4n3)ccc2C=Cc2c(F)cccc21.[Na+] (stereo not shown) [Example Compound 18, Sodium 3-{[3-[(E)-2-(7-chloro-6-fluoroquinolin-2-yl)ethenyl]-9-fluoro-5H-dibenzo[a,d]cyclohepten-5-yl]thio}-propionate] | – | 1.12 | –
15 | O=C([O-])COC1c2cc(/C=C/c3ccc4cc(F)c(Cl)cc4n3)ccc2C=Cc2c(Cl)cccc21.[Na+] (stereo not shown) [Example Compound 19, Sodium [3-[(E)-2-(7-chloro-6-fluoroquinolin-2-yl)ethenyl]-9-chloro-5H-dibenzo[a,d]cyclohepten-5-yl]oxy-acetate] | – | – | ED (2-fold shift of LTD4 dose-response) [1, 3]: 2.43 µg/kg
16 | O=C([O-])CCSC1c2cc(/C=C/c3ccc4cc(F)c(Cl)cc4n3)ccc2C=Cc2c(Cl)cccc21.[Na+] (stereo not shown) [Example Compound 20, Sodium 3-{[3-[(E)-2-(7-chloro-6-fluoroquinolin-2-yl)ethenyl]-9-chloro-5H-dibenzo[a,d]cyclohepten-5-yl]thio}-propionate] | – | 0.7 | –
17 | O=C([O-])CCSC1c2cc(/C=C/c3ccc4cc(F)c(Cl)cc4n3)ccc2C=Cc2c1cccc2C(F)(F)F.[Na+] (stereo not shown) [Example Compound 28, Sodium 3-{[3-[(E)-2-(7-chloro-6-fluoroquinolin-2-yl)ethenyl]-9-trifluoromethyl-5H-dibenzo[a,d]cyclohepten-5-yl]thio}propionate] | – | 1.7 | –
18 | O=C(O)COC1c2ccccc2C=Cc2ccc(/C=C/c3ccc4ccc(Cl)cc4n3)cc21 (stereo not shown) [Example Compound 29, Sodium [3-[(E)-2-(7-chloroquinolin-2-yl)ethenyl]-5H-dibenzo[a,d]cyclohepten-5-yl]oxyacetate] | 0.251 | – | –
19 | O=C(O)CCSC1c2cc(/C=C/c3ccc4c(n3)CCCC4)ccc2C=Cc2c1cccc2C(F)(F)F (stereo not shown) [Example Compound 31, Sodium 3-{[3-[(E)-2-(5,6,7,8-tetrahydroquinolin-2-yl)ethenyl]-9-trifluoromethyl-5H-dibenzo[a,d]cyclohepten-5-yl]thio}propionate] | 0.2 | – | –
20 | Sodium [3-[(E)-2-(7-chloroquinolin-2-yl)ethenyl]-5H-dibenzo[a,d]cyclohepten-5-yl]thioacetate [Example Compound 30] | – | – | pKi [2]: 9.7
